This is an account of results in US7371571B2, “Recombinant mycobacteria overexpressing D-alanine ligase gene and uses therefore” (priority 2002, dated 2008).

The term Ki denotes the dissociation constant of the complex between target and ligand, obtained from inhibition or displacement.

Converted amounts (≈) assume the structure as drawn. “And” between values parts separate entries of the source, which are not always exact repeats. Equal values may be shown once. “Also recorded” adds a separate entry of the source. Read-outs that look alike come from different tables or passages of the source.

Assay [1] has as its target T1, Ddl (UniProt Q47758).
T1 sequence (Q47758 1-348): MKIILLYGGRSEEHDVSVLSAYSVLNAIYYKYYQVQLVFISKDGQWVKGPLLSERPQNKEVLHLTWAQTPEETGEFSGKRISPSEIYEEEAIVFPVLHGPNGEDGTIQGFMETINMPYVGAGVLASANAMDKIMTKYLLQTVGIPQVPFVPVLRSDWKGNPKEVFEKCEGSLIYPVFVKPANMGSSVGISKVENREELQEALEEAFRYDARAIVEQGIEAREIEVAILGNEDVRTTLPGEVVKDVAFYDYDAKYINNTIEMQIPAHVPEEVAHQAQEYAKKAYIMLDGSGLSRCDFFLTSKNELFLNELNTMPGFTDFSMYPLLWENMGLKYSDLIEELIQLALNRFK
To be noted: Streptococcus faecalis purified Ddl; cited from earlier work.

Assay [2] relates to M. smegmatis strains. Nature of the assay: Inhibition of colony formation on agar. In kind it is cell-based, Mycobacterium smegmatis. Particulars: agar with 0 to 1,200 μg of DCS ml^−1, 5 days. The method, then:
(§1) MICs were determined by a microdilution method described previously (Takiff et al., 1996) with minor modifications. Briefly, M. smegmatis cells were grown in M-ADC-TW to mid-exponential phase (optical density at 600 nm, 0.6 to 1.0). Approximately 10^5 CFU in 0.1 ml were inoculated in triplicate onto 96-well microplates containing serial twofold dilutions of inhibitory compounds. Plates were incubated at 37° C. and examined daily. The MIC was defined as the minimal concentration of the drug or inhibitor that prevented visible bacterial growth after 48 h. Each MIC represents the consistent result from at least three independent cultures. Amikacin, DCS, βCDA, ethambutol, and vancomycin (all from Sigma) were prepared in sterile deionized water. Rifabutin (Amersham Pharmacia) was prepared in dimethyl sulfoxide (Fisher Scientific, St. Louis, Mo.). All further dilutions of each antibiotic were prepared in growth medium. Inhibition of colony formation by DCS was evaluated as described previously in Caceres et al., (1997), which is incorporated herein by reference. Appropriate dilutions of exponentially growing M. smegmatis cells were plated onto agar containing 0 to 1,200 μg of DCS ml^−1. Colonies were counted after 5 days of incubation at 37° C. Statistical analysis was conducted using the SAS general linear model procedure (SAS Institute, Cary, N.C.).

Assay [3] has as its system M. smegmatis GPM14. Briefly: Intracellular alanine pools by reverse-phase HPLC. To be noted: 75 μg ml^−1 DCS, 2 h.
Experimental: (§2) M. smegmatis cells were grown in minimal medium until exponential phase and split into two subcultures, and DCS was added to a final concentration of 75 μg ml^−1 to one of the subcultures. After 2 h of incubation, cells were harvested at 4° C. by centrifugation, washed twice with ice-cold double-distilled water, and concentrated 50-fold. Cells were sonicated in a salt-ice-water bath with a Vibra-Cell model VC600 sonicator (Sonic and Materials, Inc., Danbury, Conn.) for 10 min at 80% power output and 50% duty cycle. The lysate was centrifuged at 4° C. for 30 min at 30,000×g to remove bacterial debris. Protein was removed from the supernatant by serial passages through YM-10 and YM-3 Centricon concentrators (Millipore Corp., Bedford, Mass.). Determination of the abundance of individual amino acids was performed at the Amino Acid Geochronology Laboratory of Northern Arizona University (Flagstaff, Ariz.) by a reverse-phase high-performance liquid chromatography (HPLC) procedure described previously (Kaufman and Manley, 1998). This procedure is able to detect nine pairs of L- and D-amino acids in the subpicomole range. […] Thus, the abundance of each amino acid was calculated as the area under the corresponding peak and expressed relative to this pool.
Assay [4] addresses Alr. To be noted: Streptococcus faecalis purified Alr; cited from earlier work.
For assay [5], the system named is M. smegmatis mc^2155. Briefly: Intracellular alanine pools by reverse-phase HPLC. To be noted: 75 μg ml^−1 DCS, 2 h.
Experimental: as §2
In assay [6] the test system is M. smegmatis GPM260. Nature of the assay: Intracellular alanine pools by reverse-phase HPLC. To be noted: 75 μg ml^−1 DCS, 2 h.
Experimental: as §2
Assay [7] addresses T2, M. tuberculosis Ddl (Mycobacterium tuberculosis, UniProt P9WP31).
T2 sequence (P9WP31 1-373): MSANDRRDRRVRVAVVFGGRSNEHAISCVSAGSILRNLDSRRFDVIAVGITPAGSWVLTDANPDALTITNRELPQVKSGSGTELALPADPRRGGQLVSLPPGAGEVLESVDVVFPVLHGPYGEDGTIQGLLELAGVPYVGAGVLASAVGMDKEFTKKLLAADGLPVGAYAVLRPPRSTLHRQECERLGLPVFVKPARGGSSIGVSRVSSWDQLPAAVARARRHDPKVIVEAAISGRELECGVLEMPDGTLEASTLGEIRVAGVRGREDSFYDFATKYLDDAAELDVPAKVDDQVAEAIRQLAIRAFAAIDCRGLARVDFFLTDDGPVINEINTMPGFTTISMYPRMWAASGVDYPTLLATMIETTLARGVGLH
In kind it is biochemical.

The target of assay [8] is M. smegmatis Ddl (Mycolicibacterium smegmatis, UniProt Q9ZGN0). The class given is biochemical, Mycobacterium smegmatis.
Chain of M. smegmatis Ddl (Q9ZGN0 whole entry): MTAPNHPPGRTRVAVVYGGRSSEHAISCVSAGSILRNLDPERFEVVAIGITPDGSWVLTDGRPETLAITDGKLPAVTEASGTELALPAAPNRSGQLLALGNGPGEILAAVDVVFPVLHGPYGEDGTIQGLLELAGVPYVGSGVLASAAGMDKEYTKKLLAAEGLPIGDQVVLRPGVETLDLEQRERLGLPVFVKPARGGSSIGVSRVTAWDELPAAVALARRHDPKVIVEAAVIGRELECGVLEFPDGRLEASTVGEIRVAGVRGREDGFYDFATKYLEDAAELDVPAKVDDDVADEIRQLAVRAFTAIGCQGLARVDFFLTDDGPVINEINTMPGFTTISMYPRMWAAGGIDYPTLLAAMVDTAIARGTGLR
In assay [9] the test system is M. smegmatis GPM2. Nature of the assay: MIC by microdilution method. In kind it is cell-based, Mycobacterium smegmatis. Particulars: Mycolicibacterium smegmatis.
In assay [10] the test system is M. smegmatis GPM14 (overproducing Alr). Nature of the assay: MIC by microdilution method. The class given is cell-based, Mycobacterium smegmatis. To be noted: for MIC: Mycolicibacterium smegmatis, 48 h. The method, then:
as §1
Background: Broth dilution looks for growth in wells or tubes with falling amounts of substance.

In assay [11] the test system is M. smegmatis GPM260 (overproducing both Alr and Ddl). Briefly: MIC by microdilution method. In kind it is cell-based, Mycobacterium smegmatis. Particulars: for MIC: Mycolicibacterium smegmatis, M-ADC-TW, 48 h; for MIC / susceptibility of GPM260 compared with parent strain GPM14: strain GPM260. The method, then: as §1
Assay [12] has as its system M. smegmatis GPM259 (overproducing Ddl). Briefly: MIC by microdilution method. To be noted: for MIC: Mycolicibacterium smegmatis, 48 h. In kind it is cell-based, Mycobacterium smegmatis. The method, then:
as §1

For assay [13], the system named is M. smegmatis mc^2155. Briefly: MIC by microdilution method. In kind it is cell-based, Mycobacterium smegmatis.
The test system of assay [14] is M. smegmatis GPM259. Briefly: Intracellular alanine pools by reverse-phase HPLC. To be noted: 75 μg ml^−1 DCS, 2 h.
Experimental: as §2
Assay [15] concerns M. smegmatis GPM265 (overproducing M. tuberculosis Ddl). Briefly: microbe, parasite or virus in culture. The class given is cell-based, Mycobacterium smegmatis. Particulars: for MIC: Mycolicibacterium smegmatis, 48 h.
For assay [16], the system named is M. smegmatis strains. Briefly: Drug susceptibility compared across strains. The class given is cell-based, Mycobacterium smegmatis. To be noted: mc^2155, GPM259, GPM265, GPM14.

As to `NC1CONC1=O` (stereo not drawn) [DCS, 4-amino-3-isoxazolidinone], the Ki in assay [1] was 900 µM; in assay [4], 20 µM. Also, the “resistance of GPM259 and GPM265 on solid agar” value in [2] is listed as “more resistant to DCS than the wild-type mc^2155 but less resistant than the Alr-overproducing strain GPM14”. The “excess of L- over D-alanine” value was “three-fold” in assay [3] and “eightfold” in [5]. Further, the “increase of L-alanine-to-D-alanine molar ratio” value in assay [5] (versus untreated) is reported as 3.5 fold. Besides, the “excess of L-alanine” value in [6] is 18- to 20 fold and ~20 fold; in assay [14], 18- to 20 fold and ~20 fold. Further, the “inhibition of Ddl enzyme” value in assay [7] and in assay [8] was “inhibited by DCS in a concentration-dependent manner” in each case. In addition, the “percentage of inhibition higher than in mc^2155 and GPM259 extracts” value in assay [7] is recorded as “approximately 10%”. Moreover, in [8], the Ddl activity inhibited was 10 to 15%. Further, the “Ddl enzyme activity inhibited” value in assay [8] is given as “Approximately 50%”. Moreover, the MIC in [9] (strain GPM2, M-ADC-TW, 48 h, read-out: MIC) worked out at 75 µg/mL (≈ 735 µM); in assay [10], 300 µg/mL (≈ 2940 µM); in assay [11] it was 600 µg/mL (≈ 5880 µM); in [12], 150 µg/mL (≈ 1470 µM); in [13] (Mycolicibacterium smegmatis, strain mc^2155, M-ADC-TW, 48 h, read-out: MIC) it was 75 µg/mL (≈ 735 µM); in [13] (strain mc^2155, M-ADC-TW, 48 h), 75.0 µg/mL (≈ 735 µM). The compound also returned an MIC in [15] of 150 µg/mL (≈ 1470 µM). Also, the level of resistance result in [11] (strain overexpressing both the alr and ddl genes) was “eightfold-higher”. For the same compound, the “MIC relative to that for mc^2155” value in assay [12] (strain GPM259) and in assay [15] was “twofold greater” in each case.

On to `NCC[C@H](O)C(=O)N[C@@H]1C[C@H](N)[C@@H](O[C@H]2O[C@H](CN)[C@@H](O)[C@H](O)[C@H]2O)[C@H](O)[C@H]1O[C@H]1O[C@H](CO)[C@@H](O)[C@H](N)[C@H]1O` [amikacin], for which the “susceptibilities of strains overproducing Alr and/or Ddl compared with wild type” value (“susceptibilities … compared with wild type” below) in assay [16] was “identical”. Moreover, the “susceptibility of GPM260 compared with parent strain GPM14” value in assay [11] is “identical”.

As to `CC[C@@H](CO)NCCN[C@@H](CC)CO` [ethambutol], in [16], the “susceptibilities … compared with wild type” value was “identical”. For the same compound, the “susceptibility of GPM260 compared with parent strain GPM14” value in assay [11] is recorded as “identical”.

On to `CO[C@H]1/C=C/O[C@@]2(C)Oc3c(C)c(O)c4c(c3C2=O)C2=NC3(CCN(CC(C)C)CC3)NC2=C(NC(=O)/C(C)=C\C=C\[C@H](C)[C@H](O)[C@@H](C)[C@@H](O)[C@@H](C)[C@H](OC(C)=O)[C@@H]1C)C4=O` [rifabutin], for which the “susceptibilities … compared with wild type” value in [16] was “identical”. Besides, the “susceptibility of GPM260 compared with parent strain GPM14” value in assay [11] was “identical”.

As to `CN[C@H](CC(C)C)C(=O)N[C@H]1C(=O)N[C@@H](CC(N)=O)C(=O)N[C@H]2C(=O)N[C@H]3C(=O)N[C@H](C(=O)N[C@H](C(=O)O)c4cc(O)cc(O)c4-c4cc3ccc4O)[C@H](O)c3ccc(c(Cl)c3)Oc3cc2cc(c3O[C@@H]2O[C@H](CO)[C@@H](O)[C@H](O)[C@H]2O[C@H]2C[C@](C)(N)[C@H](O)[C@H](C)O2)Oc2ccc(cc2Cl)[C@H]1O` [vancomycin], the “susceptibilities … compared with wild type” value in [16] is recorded as “does not have an effect on the susceptibility; also recorded: identical”. Besides, the “susceptibility of GPM260 compared with parent strain GPM14” value in [11] is reported as “identical”.

Regarding `N[C@H](CCl)C(=O)O` [βCDA, β-chloro-D-alanine], the MIC in assay [9] (GPM2, 48 h) was 25 µg/mL (≈ 202 µM); in assay [10], 100 µg/mL (≈ 809 µM); in assay [11] it was 100 µg/mL (≈ 809 µM); in assay [12] (strain GPM259, M-ADC-TW, read-out: MIC) it was 25 µg/mL (≈ 202 µM); in assay [13] (Mycolicibacterium smegmatis, MC^2155, 48 h) it was 25 µg/mL (≈ 202 µM); in assay [15], 25 µg/mL (≈ 202 µM). In assay [10] (strain GPM14), the “MIC relative to those for strains with wild-type levels of Alr” value is given as “fourfold higher”. For the same compound, in [11], the “susceptibility of GPM260 compared with parent strain GPM14” value was “identical”.
